Test results taken from patent publication US6472415B1, “Androgen receptor suppressors in the therapy and diagnosis of prostate cancer, alopecia and other hyper-androgenic syndromes” (priority 1998, dated 2002).
Like-named read-outs stand apart in the source and are kept apart here.

How the values were obtained:
[1] = Systemic toxicity, repeated i.p. injection in mice; format: in vivo; details: i.p.
Experimental: Systemic toxicity was orientationally evaluated by i.p. injection every 2nd day in mice. […] For BP-34, the corresponding values were 150 mg/kg bw and 300 mg/kg bw.
The maximum tolerated dose should thus be approximately 300 mg/kg. For BP-34, i.p. injections of 100-300 mg/kg produce no mortalities in mice. […] Therefore, the maximum tolerated dose of BP-34 should be approximately 250 mg/kg.

[2] = four rabbits, topically twice daily (0.6 mg/kg-day), ten days; limit of detection approximately 10 ng/ml
Experimental: (§1) Serum samples were collected at 2, 5 and 21 hours after the first application, and once every other day, thereafter. Serum samples were processed and analyzed by HPLC.

[3] = probit analysis
[4] = male and female Wistar rats, highest dose tested
[5] = rabbits, topical twice daily, ten days
Experimental: as §1
The rabbits were also observed daily for signs of cutaneous irritation.

[6] = Permadi et al. 1993; cited from earlier work
AR = target: T1, AR (Homo sapiens, UniProt P10275); assay: Interaction of non-radioactive iodine compounds with AR; details: compounds containing non-radioactive iodine
T1 sequence (P10275 1-920): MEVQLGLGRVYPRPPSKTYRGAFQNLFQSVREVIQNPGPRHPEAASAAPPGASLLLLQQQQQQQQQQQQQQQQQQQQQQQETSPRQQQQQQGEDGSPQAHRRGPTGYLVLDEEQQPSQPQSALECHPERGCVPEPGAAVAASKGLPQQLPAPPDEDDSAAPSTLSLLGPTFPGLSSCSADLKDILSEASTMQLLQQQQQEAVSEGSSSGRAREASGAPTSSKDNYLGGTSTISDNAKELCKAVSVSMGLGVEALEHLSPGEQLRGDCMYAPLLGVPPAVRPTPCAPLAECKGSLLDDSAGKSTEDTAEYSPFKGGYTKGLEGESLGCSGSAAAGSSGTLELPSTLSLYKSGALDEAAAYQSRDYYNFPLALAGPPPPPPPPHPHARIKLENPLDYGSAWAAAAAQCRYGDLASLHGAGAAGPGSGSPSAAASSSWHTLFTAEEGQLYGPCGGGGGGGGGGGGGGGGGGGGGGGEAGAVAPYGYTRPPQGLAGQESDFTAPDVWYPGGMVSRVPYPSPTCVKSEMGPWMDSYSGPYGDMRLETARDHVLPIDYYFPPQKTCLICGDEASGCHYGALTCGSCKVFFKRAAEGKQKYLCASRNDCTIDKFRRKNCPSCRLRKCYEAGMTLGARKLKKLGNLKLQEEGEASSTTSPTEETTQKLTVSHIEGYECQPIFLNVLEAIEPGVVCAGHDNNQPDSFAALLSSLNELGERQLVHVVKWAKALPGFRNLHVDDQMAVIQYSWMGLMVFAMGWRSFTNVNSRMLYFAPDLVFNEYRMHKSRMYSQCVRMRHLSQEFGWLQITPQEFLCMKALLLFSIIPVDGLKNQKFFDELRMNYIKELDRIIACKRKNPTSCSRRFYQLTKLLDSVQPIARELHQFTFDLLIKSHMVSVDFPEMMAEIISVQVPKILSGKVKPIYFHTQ

CC(O)(CNC(=O)C(F)(F)F)C(=O)Nc1ccc([N+](=O)[O-])c(C(F)(F)F)c1 (stereo not shown) [BP-766, 4-nitro-3-trifluoromethyl-N-(2′-hydroxy-2′-methyl-3′-N-(trifluoromethylamido)propionyl) aniline]
Maximum tolerated dose [1]: approximately 300 mg/kg
LD50 (daily dose for seven days that resulted in 50% mortality) ([1]; daily for seven days): 450 mg/kg bw
BP-766 and/or BP-34 in serum after topical application [2]: No. BP-766 or BP-34 were found in any of the samples
LD50, acute oral ([3]; female NMRI mice): 2232.0 mg/kg
LD50, acute oral ([3]; male NMRI mice): 2871.7 mg/kg
% BP-766 (60/40 EtOH/H2O, 55° C., 0 hours): 100%
% BP-766 (60/40 EtOH/H2O, 55° C., 24 hours): 98.1%
% BP-766 (60/40 EtOH/H2O, 55° C., 48 hours): 98.2%
% BP-766 (60/40 EtOH/H2O, RT, 0 hours): 100%
% BP-766 (60/40 EtOH/H2O, RT, 24 hours): 99.9%
% BP-766 (60/40 EtOH/H2O, RT, 48 hours): 99.69%
% BP-766 (Isopropanol (3-5% water), 55° C., 0 hours): 100%
% BP-766 (Isopropanol (3-5% water), 55° C., 6 hours): 99.6%
% BP-766 (Isopropanol (3-5% water), 55° C., 24 hours): 99.1%
% BP-766 (Isopropanol (3-5% water), 55° C., 144 hours): 98.7%
% BP-766 (anhydrous isopropanol, 50° C., 0 weeks): 100%
% BP-766 (anhydrous isopropanol, 50° C., 1 week): 99.6%
% BP-766 (anhydrous isopropanol, 50° C., 2 weeks): 99.4%
% BP-766 (anhydrous isopropanol, 50° C., 3 weeks): 99.3%
% BP-766 (anhydrous isopropanol, 50° C., 4 weeks): 99.2%
% BP-766 (anhydrous isopropanol, 50° C., 5 weeks): 98.9%
% BP-766 (anhydrous isopropanol, 50° C., 6 weeks): 98.8%
% BP-766 (anhydrous isopropanol, 50° C., 7 weeks): 98.3%
% BP-766 (anhydrous isopropanol, 50° C., 8 weeks): 98.4%
Effect on effluvium of the frontal hairline (androgenic alopecia; six volunteers (4 male, 2 female), 2% solution, 1 ml twice daily, after 2 weeks): arrested the effluvium of the frontal hairline in all six volunteers
Dermal irritation (androgenic alopecia; six volunteers, 2% solution in anhydrous isopropanol, 1 ml twice daily (0.6 mg/kg), 8 weeks): no dermal irritation
Regrowth (androgenic alopecia; two volunteers, after 4 months use): evident regrowth
LD50, acute oral [4]: > 2500 mg/kg body weight
Signs of cutaneous irritation [5]: No signs of irritation

O=C(O)C(F)(F)F [trifluoroacetic acid]
Toxicity when fed to mice [6]: no toxicity

CC1(C)C(=O)N(c2ccc(C#N)c(C(F)(F)F)c2)C(=S)N1C/C=C/I [BP-305, 4-[3′-trans-(2″-propenyl-3″-iodo)-4′,4′-dimethyl-5′-oxo-2′-thioxo-1-imidazolidinyl]-2-trifluoromethylbenzonitrile]
Interaction with AR as compared to controls (AR): shown to interact with AR
